Experiments:
[1] = Microsomal metabolic stability, dog; format: in vitro ADME; conditions: dog liver microsomes
Protocol: The liver microsomal incubation system comprised human, dog, or rat liver microsomal protein (0.75 mg/mL), nicotinamide adenine dinucleotide phosphate (NADPH) generation system, potassium phosphate buffer (0.1 M, pH 7.4), substrate, and inhibitor. The assay was conducted by first preparing a potassium phosphate buffer. Compounds and liver microsomes were then diluted and pre-incubated at 37 °C before initiating the reaction with NADPH. Aliquots were quenched with acetonitrile containing internal standard at specified time points. After sample processing (shaking and centrifugation), the supernatants were analyzed by LC-MS/MS to determine metabolic stability.

[2] = tested on: rat transient Middle Cerebral Artery Occlusion (tMCAO) model; assay: Rat tMCAO model, acute phase (TTC, mNSS, peri-infarct cortex); format: in vivo
Protocol: Cpd.51 was dissolved in solvent (10% DMSO, 10% Solutol HS-15 and 80% saline). It was injected (i.v.) at dose of 3 mg/kg or 5 mg/kg in a 0.5 mL volume. The Sham group and Vehicle group were treated simultaneously with an equal volume of solvent. In the experiment to explore the treatment time window, we merely administered the drug to the rats at different time points, while all other procedures remained unchanged. In the short-term toxicity study, 10 mg/kg Cpd.51 and Oma were administered via tail vein injection at 0.5 mL daily for 7 consecutive days.
All rats were fasted for more than 12 h before the operation began. Transient focal cerebral ischemia was induced by middle cerebral artery occlusion (MCAO) in rat, as previously described, [29]. In short, after anesthetizing the rats with 2.5% tribromoethanol, the right common carotid artery (CCA), external carotid artery (ECA), and internal carotid artery (ICA) were isolated. […] The body temperature of the animals was maintained between 36.5 °C and 37.5 °C.
After the behavioral assessments, rats were euthanized and the brain harvested. Brain tissue was cut into five coronal sections (2 mm thick) and incubated in 2% TTC (298-96-4, TCI, Japan) for 20 min at 37 °C. The volume of ischemic brain injury was measured using ImageJ (US National Institutes of […], Bethesda, MD, USA).
To assess the degree of neurological impairment, we conducted modified Neurological Severity Score (mNSS) according to previous experience. The investigator was blinded to the grouping situation during the whole experiment.
The anesthetized-animals were transcardially perfused with 0.9% saline in vivo. The ischemic penumbral tissue was isolated from rats and grinded in PBS. Similarly, in vitro, the cells were digested with pancreatic enzymes and placed in PBS. Next, repeatedly freeze and thaw three times in liquid nitrogen and 37 °C water. Sample supernatant was taken for testing according to the MDA or GSH assay kit instructions (S0131M or S0053, Beyotime, China).
Brain tissue was fixed with 4% paraformaldehyde and immersed in 15% sucrose and 30% sucrose at 4 °C overnight. Coronal brain sections (thickness = 20 μm) were incubated with blocking solution for 1.5 h at room temperature followed by incubation with primary antibodies: anti-Nrf2 (1:200, CST), anti-DHRS3 (1:300, Proteintech), anti-NeuN (1:500, Servicebio), anti-GFAP (1:500, Abcam) and anti-Iba-1 (1:500, Abcam). Subsequent immunostaining assays were performed as previously described of cells.

Keap1-Nrf2 = target: T1, Keap1-Nrf2 (Homo sapiens, UniProt Q14145); assay: Co-IP of Keap1-Nrf2 binding in SH-SY5Y cells; format: cell-based; conditions: 100 nM, physiological and OGD/R conditions
T1 construct: endogenous in cells; host or cells: SH-SY5Y
Protocol: Co-IP experiments were performed as described. After SH-SY5Y cells were treated, lysates were collected and incubated with antibodies with rotation for 12 h at 4 °C. Then, they were incubated with protein A/G magnetic beads (88804, Thermo Scientific, USA) as specification. Subsequently, the beads were collected and immune complexes were isolated. Finally, protein complexes were incubated for 5 min at 95 °C after dissolving in the electrophoresis sample buffer, and subjected to western blotting.

[3] = 5 mg/kg i.v. at 4 h post-ischemia, read at 24 h

T1 sequence (Q14145 whole entry): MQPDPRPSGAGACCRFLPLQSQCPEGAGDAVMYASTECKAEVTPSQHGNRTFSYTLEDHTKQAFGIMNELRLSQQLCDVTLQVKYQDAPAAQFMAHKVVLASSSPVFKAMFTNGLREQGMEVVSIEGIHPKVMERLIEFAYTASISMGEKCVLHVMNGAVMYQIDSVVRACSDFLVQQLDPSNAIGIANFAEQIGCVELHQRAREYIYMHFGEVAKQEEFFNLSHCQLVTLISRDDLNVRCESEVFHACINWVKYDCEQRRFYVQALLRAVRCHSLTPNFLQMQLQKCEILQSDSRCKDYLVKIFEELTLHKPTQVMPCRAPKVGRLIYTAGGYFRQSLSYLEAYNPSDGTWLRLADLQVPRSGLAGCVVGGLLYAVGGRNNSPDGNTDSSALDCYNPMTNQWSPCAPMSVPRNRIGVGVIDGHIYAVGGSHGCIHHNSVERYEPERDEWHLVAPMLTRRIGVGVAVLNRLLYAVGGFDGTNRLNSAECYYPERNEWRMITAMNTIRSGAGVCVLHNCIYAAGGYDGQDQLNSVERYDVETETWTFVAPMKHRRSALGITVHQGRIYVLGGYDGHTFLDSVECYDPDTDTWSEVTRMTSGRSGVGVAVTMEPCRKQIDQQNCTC

## CC1(C)CCC2(C(=O)NO)CCC3(C)C(C(=O)C=C4C5(C)C=C(C#N)C(=O)C(C)(C)C5CCC43C)C2C1 (centres unmarked) [Cpd.51]
[1]
  Remainig (%, t = 60 min): 32.9%
[1]; dog, pH 7.4
  CLint scaled: 51 mL/min/kg
  half-life: 39.2 min
[2]; 3 mg/kg and 5 mg/kg i.v. at the same time as ischemia
  area of infarction (TTC): significantly reduced the area of infarction
[2]; [3]
  infarction volume, delayed administration: significantly diminished infarction volume
  mNSS scores, delayed administration: improved mNSS scores
[2]; 24 h post tMCAO, immunoblotting
  Nrf2, HO-1 and NQO1 protein levels in peri-infarct cortex: significantly upregulated
[2]; peri-infarct region, 24 h after ischemia
  cell type of Nrf2 enrichment (co-staining NeuN, GFAP, Iba-1): Nrf2 was selectively enriched in neurons
[2]; tMCAO rats, i.v.
  mNSS scores: significantly inhibited the increase in mNSS scores
[2]; tMCAO rats, peri-infarct cortex
  GSH and MDA in cortical tissues: restoring GSH concentrations and suppressing MDA accumulation
Keap1-Nrf2
  amount of Nrf2 bound to Keap1 (Co-IP): reduced the amount of Nrf2 bound to Keap1
